PubChem BioAssay AID732 (Emory University Molecular Libraries Screening Center, 2007)
Values joined by “and” are separate entries in the source; they are usually repeats but may differ in a detail not shown here. Equal values may be shown once. Active and inactive are the calls of the source. The rule behind the calls is not given here.

Test system: in vivo angiogenesis, blood vessel count
Assay: angiogenesis inhibition in living animals, in vivo study, HTS (AID 732);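 note: zebrafish embryos dosed at one day post fertilization; 0% = reference inhibitor and 100% = plate mean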
Conditions: active compounds read low;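 tested at 30 µM in the well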

SMILES: COc1ccccc1N1CCN(CCN(C(=O)C2CCCCC2)c2ccccn2)CC1
- vessel count % control: 87.8% (inactive)

SMILES: CN1C[C@H](C(=O)N[C@]2(C)O[C@@]3(O)[C@@H]4CCCN4C(=O)[C@H](Cc4ccccc4)N3C2=O)C[C@@H]2c3cccc4[nH]cc(c34)C[C@H]21
- vessel count % control: 98.7% (inactive)

SMILES: CCn1cc(C(=O)O)c(=O)c2cc3c(cc21)OCO3
- vessel count % control: 121% (inactive)

SMILES: CN1C[C@@H](CS(=O)(=O)N(C)C)C[C@@H]2c3cccc4c3c(cn4C)C[C@H]21
- vessel count % control: 103% (inactive)

SMILES: Nc1ncnc2c1ncn2[C@@H]1O[C@H](CO)[C@H](O)C1O (some centres undefined)
- vessel count % control: 105% (inactive)

SMILES: CN=C(NC#N)NCCSCc1nc[nH]c1C
- vessel count % control: 112% (inactive)

SMILES: NCCCCNS(=O)(=O)c1cccc2c(Cl)cccc12
- vessel count % control: 107% (inactive)

SMILES: O=P(O)(O)C(Cl)(Cl)P(=O)(O)O
- vessel count % control: 110% (inactive)

SMILES: Oc1cc2c(cc1O)C(c1ccccc1)CNCC2 (centres undefined)
- vessel count % control: 85.1% (inactive)

SMILES: CN1C(=O)CCS(=O)(=O)C1c1ccc(Cl)cc1 (centres undefined)
- vessel count % control: 97% (inactive)

SMILES: CCCCCCCCCCCCCCCCCCOC[C@H](COP(=O)([O-])OCC[N+](C)(C)C)OC
- vessel count % control: 97.5% (inactive)

SMILES: N[C@H](C(=O)O)[C@H](O)C(=O)O
- vessel count % control: 90.4% (inactive)

SMILES: CCCn1c(=O)c2c(ncn2C)n(CCC)c1=O
- vessel count % control: 98.7% (inactive)

SMILES: O=C1CCCN1CC#CCN1CCCC1
- vessel count % control: 99.6% (inactive)

SMILES: NN=C(N)N
- vessel count % control: 92.2% (inactive) and 80.5% (inactive)

SMILES: N[C@@H](Cc1ccc(F)cc1)C(=O)O
- vessel count % control: 108% (inactive)

SMILES: CCCOc1ccccc1-c1nc2n[nH]nc2c(=O)[nH]1
- vessel count % control: 119% (inactive)

SMILES: COC1(C2=NCCN2)COc2ccccc2O1 (centres undefined)
- vessel count % control: 121% (inactive)

SMILES: CC(C)(Oc1ccc(C2CC2(Cl)Cl)cc1)C(=O)O (centres undefined)
- vessel count % control: 96.9% (inactive)

SMILES: CCCN1CCC[C@@H]2Cc3nc(N)ncc3C[C@H]21
- vessel count % control: 107% (inactive)

SMILES: CCN(CC)CCNC(=O)c1ccc(NC(C)=O)cc1
- vessel count % control: 117% (inactive)

SMILES: NCCc1ccc(S(=O)(=O)F)cc1
- vessel count % control: 87.5% (inactive)

SMILES: COc1cc(C(O)C(=O)O)ccc1O (centres undefined)
- vessel count % control: 92.5% (inactive)

SMILES: CC12NC(Cc3ccccc31)c1ccccc12 (centres undefined)
- vessel count % control: 76.2% (inactive)

SMILES: CC(=O)OCC1=C(C(=O)O)N2C(=O)[C@@H](NC(=O)Cc3cccs3)[C@H]2SC1
- vessel count % control: 132% (inactive)

SMILES: C=CCN1CCc2c(cc(O)c(O)c2Cl)C(c2ccccc2)C1 (centres undefined)
- vessel count % control: 121% (inactive)

SMILES: C=Cc1c(C)c2cc3[nH]c(cc4nc(cc5nc(cc1[nH]2)C(C)=C5CCC(=O)O)C(CCC(=O)O)=C4C)c(C)c3C=C
- vessel count % control: 112% (inactive)

SMILES: O=S(=O)(O)C1CCNCC1
- vessel count % control: 89.3% (inactive)

SMILES: N[C@@]1(C(=O)O)CC[C@@H](C(=O)O)C1
- vessel count % control: 102% (inactive)

SMILES: C[C@]12N[C@H](Cc3ccccc31)c1ccccc12
- vessel count % control: 85.8% (inactive)

SMILES: Brc1c(NC2=NCCN2)ccc2nccnc12
- vessel count % control: 104% (inactive)

SMILES: NC(=O)c1cc[n+](CC2=C(C(=O)O)N3C(=O)[C@@H](NC(=O)[C@@H](c4ccccc4)S(=O)(=O)[O-])[C@H]3SC2)cc1
- vessel count % control: 99.9% (inactive)

SMILES: O=C(O)CP(=O)(O)O
- vessel count % control: 79.8% (inactive)

SMILES: CCC(=O)c1ccc2c(c1)N(CCCN(C)C)c1ccccc1S2
- vessel count % control: 112% (inactive)

SMILES: CN(C)CC[C@@H](c1ccc(Br)cc1)c1ccccn1
- vessel count % control: 102% (inactive)

SMILES: NC(=S)c1ccc[n+]([C@@H]2O[C@@H](COP(=O)([O-])OP(=O)(O)OC[C@H]3O[C@@H](n4cnc5c(N)ncnc54)C(OP(=O)(O)O)[C@H]3O)C(O)C2O)c1 (some centres undefined)
- vessel count % control: 101% (inactive)

SMILES: Nc1nc2ccc(Cl)cc2c2nc(-c3ccco3)nn12
- vessel count % control: 95.7% (inactive)

SMILES: N.N.O=C(O)C1(C(=O)O)CCC1.[Pt+2]
- vessel count % control: 105% (inactive)

SMILES: O=C(O)CN(CCN(CC(=O)O)CC(=O)O)CCN(CC(=O)O)CC(=O)O
- vessel count % control: 0% (inactive)

SMILES: CP(=O)(O)C1=CCNCC1
- vessel count % control: 116% (inactive)

SMILES: CCCN(CCC)C(=O)Cc1c(-c2ccc(Cl)cc2)nc2c(Cl)cc(Cl)cn12
- vessel count % control: 89.9% (inactive)

SMILES: CCCN1CCC[C@@H](c2cccc(C#N)c2)C1
- vessel count % control: 103% (inactive)

SMILES: COc1ccccc1N1CCN(CC(O)COc2cccc3ccccc23)CC1 (centres undefined)
- vessel count % control: 91.2% (inactive)

SMILES: O=c1[nH]c2cc(Cl)ccc2c(O)c1-c1ccc(Oc2ccccc2)cc1
- vessel count % control: 66.8% (inactive)

SMILES: CN(C)c1ccc(/C=C2\C(=O)Nc3ccccc32)cc1
- vessel count % control: 36.7%

SMILES: O=C(CCCN1CCC(O)(c2cccc(C(F)(F)F)c2)CC1)c1ccc(F)cc1
- vessel count % control: 60.2% (inactive)

SMILES: Cc1ccc2[nH]c(O)c(-c3[nH]c4ccc(Br)cc4c3N=O)c2c1
- vessel count % control: 33.9%

SMILES: NC/C=C/C(=O)O
- vessel count % control: 97.5% (inactive)

SMILES: NC1CCN(O)C1=O (centres undefined)
- vessel count % control: 115% (inactive)

SMILES: CC(C)[C@@]1(NC(=O)[C@@H]2C=C3c4cccc5[nH]cc(c45)C[C@H]3N(C)C2)O[C@@]2(O)[C@@H]3CCCN3C(=O)[C@H](Cc3ccccc3)N2C1=O
- vessel count % control: 94% (inactive)

SMILES: CN(N=O)c1ccc(O)c(O)c1
- vessel count % control: 96.8% (inactive)

SMILES: C[C@]12Cc3cn4c(nc3C=C1CCC1C2CC[C@@]2(C)[C@H]1CC[C@@]2(O)C#N)nc1ccccc14 (some centres undefined)
- vessel count % control: 97% (inactive)

SMILES: C[C@]12CCC3C(CC[C@H]4C[C@H](O)CC[C@]34C)C1CC[C@@H]2C(=O)CO (some centres undefined)
- vessel count % control: 105% (inactive)

SMILES: CCCCC/C=C\C/C=C\C/C=C\C/C=C\CCCC(=O)NCC(=O)O
- vessel count % control: 83.7% (inactive)

SMILES: Cc1c(C(=O)c2cccc3ccccc23)c2cccc3c2n1[C@H](CN1CCOCC1)CO3
- vessel count % control: 0% (inactive)

SMILES: CC(=O)c1c(O)c(C)c(O)c(Cc2c(O)c3c(c(C(=O)/C=C/c4ccccc4)c2O)OC(C)(C)C=C3)c1O
- vessel count % control: 0% (inactive)

SMILES: CN1C(C(=O)Nc2ccccn2)=C(O)c2ccccc2S1(=O)=O
- vessel count % control: 110% (inactive)

SMILES: CN1CCN2c3ccccc3Cc3ccccc3C2C1 (centres undefined)
- vessel count % control: 72.3% (inactive)

SMILES: c1ccc2c(N3CCNCC3)cccc2c1
- vessel count % control: 97.1% (inactive)

SMILES: Cc1ccccc1N1CCN(S(=O)(=O)C[C@]23CCC(CC2NC(=O)[C@@H](N)CCS(C)(=O)=O)C3(C)C)CC1 (some centres undefined)
- vessel count % control: 107% (inactive)

SMILES: CCCCCC[C@@H]([C@@H](C)O)n1cnc2c(N)ncnc21
- vessel count % control: 85.8% (inactive)

SMILES: CN(C)CCCN1c2ccccc2Sc2ccccc21
- vessel count % control: 93.7% (inactive)

SMILES: CC(=O)[C@@]1(O)CC[C@H]2[C@@H]3CCC4=CC(=O)CC[C@]4(C)[C@H]3CC[C@@]21C
- vessel count % control: 98.7% (inactive)

SMILES: Cc1ccc2c(c1)C(N1CCN(C)CC1)=Nc1cccnc1N2
- vessel count % control: 127% (inactive)

SMILES: CNC(=O)[C@H]1O[C@@H](n2cnc3c(N)ncnc32)C(O)[C@H]1O (some centres undefined)
- vessel count % control: 118% (inactive)

SMILES: Cc1nnc(SCC2=C(C(=O)O)N3C(=O)[C@@H](NC(=O)Cn4cnnn4)[C@H]3SC2)s1
- vessel count % control: 90.8% (inactive)

SMILES: CCN1C(=O)C=CC1=O
- vessel count % control: 104% (inactive)

SMILES: N[C@@H](Cc1ccc(O)c(I)c1)C(=O)O
- vessel count % control: 108% (inactive)

SMILES: COC(=O)Nc1nc2ccc(C(=O)c3cccs3)cc2[nH]1
- vessel count % control: 150% (inactive)
